Reference: BindingDB's records for patent US12441689 (Epivario, 2025)

Target: Acetyl-coenzyme A synthetase, cytoplasmic (Homo sapiens, UniProt Q9NR19)
Experiment: ACSS2 Cell-Free Activity Assay
Experimental: At the end of the reaction, Biomol Green was added for 30 minutes at RT and the activity was measured by reading the absorbance at 620 nm.

Sequence of Acetyl-coenzyme A synthetase, cytoplasmic (Q9NR19 whole entry): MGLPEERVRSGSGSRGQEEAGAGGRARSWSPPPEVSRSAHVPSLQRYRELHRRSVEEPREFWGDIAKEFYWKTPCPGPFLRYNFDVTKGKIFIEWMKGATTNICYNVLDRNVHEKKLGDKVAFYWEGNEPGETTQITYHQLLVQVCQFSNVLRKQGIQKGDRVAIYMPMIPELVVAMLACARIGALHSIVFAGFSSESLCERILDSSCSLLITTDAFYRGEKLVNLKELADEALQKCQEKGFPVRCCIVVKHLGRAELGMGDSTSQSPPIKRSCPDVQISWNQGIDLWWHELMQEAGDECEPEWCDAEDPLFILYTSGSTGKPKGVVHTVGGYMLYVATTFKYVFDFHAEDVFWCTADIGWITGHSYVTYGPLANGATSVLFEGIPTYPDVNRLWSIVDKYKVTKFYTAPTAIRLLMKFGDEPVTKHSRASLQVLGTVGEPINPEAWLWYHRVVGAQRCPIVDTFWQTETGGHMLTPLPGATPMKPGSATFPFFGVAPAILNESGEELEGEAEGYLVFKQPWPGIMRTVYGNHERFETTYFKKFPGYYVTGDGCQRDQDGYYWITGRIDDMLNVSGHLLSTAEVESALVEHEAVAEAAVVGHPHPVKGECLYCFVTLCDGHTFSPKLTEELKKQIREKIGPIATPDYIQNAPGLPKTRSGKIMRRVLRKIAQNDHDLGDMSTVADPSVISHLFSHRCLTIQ

Which IC50 does the source give for `CCC(F)(F)c1cccc(NC(=O)c2nc(-c3ccc4cc[nH]c4c3)oc2C)c1` [US12441689, Compound 106] here?
Its IC50 is > 100 nM.
